From PMC6747315, “Formation of α-Farnesene in Tea (Camellia sinensis) Leaves Induced by Herbivore-Derived Wounding and Its Effect on Neighboring Tea Plants” (International Journal of Molecular Sciences, 2019)

Molecular target: T1, CsAFS (α-farnesene synthase) (Camellia sinensis, UniProt A0A3G3IRF8)
T1 construct: full-length ORF cloned in pET32a (EcoRV/SalI); cloning primers encode N-terminus MDCSKGML and C-terminus LIEPLKIN
T1 sequence (A0A3G3IRF8 1-560): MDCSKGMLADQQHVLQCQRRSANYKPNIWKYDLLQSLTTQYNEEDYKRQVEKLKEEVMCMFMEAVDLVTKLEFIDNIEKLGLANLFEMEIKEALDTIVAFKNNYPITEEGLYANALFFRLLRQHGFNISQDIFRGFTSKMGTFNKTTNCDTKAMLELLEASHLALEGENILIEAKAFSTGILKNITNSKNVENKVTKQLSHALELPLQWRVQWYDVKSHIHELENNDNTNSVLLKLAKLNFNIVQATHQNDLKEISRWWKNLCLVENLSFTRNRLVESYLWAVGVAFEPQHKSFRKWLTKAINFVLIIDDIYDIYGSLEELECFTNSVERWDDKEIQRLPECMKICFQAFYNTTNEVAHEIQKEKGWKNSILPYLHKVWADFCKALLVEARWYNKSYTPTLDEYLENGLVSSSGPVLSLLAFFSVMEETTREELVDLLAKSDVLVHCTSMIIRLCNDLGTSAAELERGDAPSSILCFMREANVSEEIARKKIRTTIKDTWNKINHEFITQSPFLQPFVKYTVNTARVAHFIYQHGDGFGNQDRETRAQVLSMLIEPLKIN
Test: SPME GC-MS product analysis
Assay type: biochemical
Details: 15 µg protein in 1 mL, 10 mM MgCl2, 1 mM MnCl2, 500 mM KCl, pH 7.0, 30 °C, 1 h

CC(C)=CCC/C(C)=C/COP(=O)(O)OP(=O)(O)O [geranyl diphosphate]
SPME GC-MS product analysis (product β-ocimene): with geranyl diphosphate (GPP) as substrate, the CsAFS enzyme produced only β-ocimene

CC(C)=CCC/C(C)=C/CC/C(C)=C/COP(=O)(O)OP(=O)(O)O [farnesyl diphosphate]
SPME GC-MS product analysis (product α-farnesene): recombinant protein CsAFS converted substrate farnesyl diphosphate (FPP) into α-farnesene as the final product
